# Measured values as given in US11780845B2 (Relay Therapeutics, Inc., priority 2019, dated 2023).
# Target: FGFR2 (Homo sapiens (Human), UniProt P21802)
# Test: Biochemical FGFR2 Caliper assay
# Settings: not given
# FGFR2, sequence (P21802 22-821): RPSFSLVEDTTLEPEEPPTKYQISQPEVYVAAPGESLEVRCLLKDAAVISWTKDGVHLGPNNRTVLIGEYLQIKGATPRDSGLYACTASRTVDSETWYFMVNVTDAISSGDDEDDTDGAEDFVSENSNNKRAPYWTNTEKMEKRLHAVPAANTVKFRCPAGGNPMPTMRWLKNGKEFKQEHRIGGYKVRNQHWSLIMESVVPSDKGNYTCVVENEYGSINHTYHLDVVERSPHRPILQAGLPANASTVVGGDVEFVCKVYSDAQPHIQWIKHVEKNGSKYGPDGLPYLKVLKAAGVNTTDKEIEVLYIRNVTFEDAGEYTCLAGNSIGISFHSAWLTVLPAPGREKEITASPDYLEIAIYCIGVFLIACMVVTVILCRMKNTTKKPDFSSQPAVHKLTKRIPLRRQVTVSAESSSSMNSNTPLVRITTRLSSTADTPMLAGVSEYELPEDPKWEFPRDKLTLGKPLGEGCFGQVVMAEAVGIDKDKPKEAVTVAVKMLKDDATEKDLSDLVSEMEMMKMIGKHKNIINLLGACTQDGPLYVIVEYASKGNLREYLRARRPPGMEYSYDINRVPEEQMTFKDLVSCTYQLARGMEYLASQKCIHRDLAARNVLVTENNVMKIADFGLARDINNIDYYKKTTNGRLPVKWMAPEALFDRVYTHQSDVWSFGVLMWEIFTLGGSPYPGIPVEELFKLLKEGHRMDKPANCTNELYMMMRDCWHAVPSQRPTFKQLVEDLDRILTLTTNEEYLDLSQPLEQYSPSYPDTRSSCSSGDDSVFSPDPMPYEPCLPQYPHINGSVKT
row,IC50 [nM],Structure (SMILES)
1,< 100,"C#Cc1cc(C)c(-c2c(C3=CC[C@H](C(=O)N4CCCC4)CC3)c3c(C)ncnc3n2C)cn1 (single isomer, unassigned) [Example 1201]"
2,< 100,C#Cc1cc2c(cn1)-c1c(-c3ccc(Oc4nccc(C)n4)c(F)c3)c3c(N)ncnc3n1C[C@H](C)O2 [Example 1455]
3,< 100,"C#Cc1cc(C)c(-c2c(-c3ccc(Oc4nccc(C)n4)c(F)c3)c3c(N)ncnc3n2[C@H]2C[C@H](O)C2)cn1 (atropisomer, axis not shown) [Example 1357]"
4,1000 to 100000,C=C(C)C(=O)Nc1ccc(-c2c(-c3ccc4c(C(=O)NC5CC5)n[nH]c4c3)c3c(N)ncnc3n2C)cc1 [Example 1323]
5,1000 to 100000,C=C(C)C(=O)Nc1ccc(-c2c(-c3ccc(-c4cc(=O)[nH][nH]4)cc3)c3c(N)ncnc3n2C)cc1 [Example 1300]
6,1000 to 100000,C#Cc1cc(C)c(-c2cn3ncnc(N)c3c2C2=CC[C@H](C(=O)N3CCC[C@H]3C)CC2)cn1 [Example 1387]
7,< 100,C=CC(=O)Nc1ccc(-c2cn3ncnc(N)c3c2-c2ccc(C(=O)N3CCCCC3)cc2)cc1 [Example 837]
8,< 100,C=C(C)C(=O)Nc1cnc(-c2c(-c3ccc(Oc4cccc(C)n4)c(F)c3)c3c(N)ncnc3n2C)c(C)c1 [Example 1095]
9,< 100,C=C(C)C(=O)Nc1ccc(-c2c(-c3ccc(Oc4nccc(C)n4)c(F)c3)c3c(C)ncnc3n2C)c(C)c1 [Example 1126]
10,100 to 250,C=C(C)C(=O)Nc1ccc(-c2c(-c3cnc(-c4ccccc4)s3)c3c(N)ncnc3n2C)cc1 [Example 1293]
11,1000 to 100000,C=Cc1nc2cc(-c3c(-c4ccc(C(=O)N5CCCC5)cc4)c4c(N)ncnc4n3C)ccc2n1C [Example 893]
12,1000 to 100000,C=C(C)C(=O)Nc1ccc(-c2c(C3=CC[C@@](C)(C(=O)N4CCCC4)CC3)c3c(N)ncnc3n2C)cc1 [Example 1025]
13,250 to 1000,C=C(C)C(=O)Nc1ccc(-c2c(-c3ccc(C(=O)c4cccc(C)n4)cc3)c3c(N)ncnn3c2COC)cc1 [Example 853]
14,< 100,"C#Cc1cc(C)c(-c2c(-c3ncc(Oc4nccc(C)n4)cc3F)c3c(N)ncnc3n2C)c(C)n1 (atropisomer, axis not shown) [Example 1453]"
15,100 to 250,C=CC(=O)N1CCC(c2c(-c3ccc(OC4CC4)nc3)c3c(N)ncnc3n2C)C1 (stereo not shown) [Example 804]
16,< 100,"Cn1c(-c2ccc(NC(=O)CCl)cc2)c(C2=CC[C@@H](C(=O)N3CCCC3)CC2)c2c(N)ncnc21 (single isomer, unassigned) [Example 906]"
17,< 100,C#Cc1cc(C)c(-c2c(-c3ccc(Oc4nccc(C)n4)c(F)c3)c3c(Cl)ncnc3n2C)c(F)n1 [Example 1416]
18,250 to 1000,C=C(C)C(=O)Nc1ccc(-c2c(-c3ccc(C(=O)NCC4(F)CCC4)c(OC)c3)c3c(N)ncnc3n2C)cc1 [Example 946]
19,1000 to 100000,C#Cc1cc(C)c(-c2c(C3=CC[C@@]4(CC3)Cc3ccc(C)nc3O4)c3c(N)ncnc3n2C)cn1 [Example 1393]
20,250 to 1000,"C=C(C)C(=O)N1CC=C(c2c(-c3ccc(Oc4cccc(C)n4)cc3)c3c(N)ncnc3n2C)[C@H]1C (single isomer, unassigned) [Example 930]"

# System: SNU-16
# Test: Cell SNU-16 assay
# Assay type: cell-based
# Settings: Homo sapiens, SNU-16, SNU-16 cells
row,IC50 [nM],Structure (SMILES)
1,≤ 100,"C#Cc1cc(C)c(-c2c(C3=CC[C@H](C(=O)N4CCCC4)CC3)c3c(C)ncnc3n2C)cn1 (single isomer, unassigned) [Example 1201]"
2,≤ 100,C#Cc1cc2c(cn1)-c1c(-c3ccc(Oc4nccc(C)n4)c(F)c3)c3c(N)ncnc3n1C[C@H](C)O2 [Example 1455]
3,≤ 100,"C#Cc1cc(C)c(-c2c(-c3ccc(Oc4nccc(C)n4)c(F)c3)c3c(N)ncnc3n2[C@H]2C[C@H](O)C2)cn1 (atropisomer, axis not shown) [Example 1357]"
4,1000 to 100000,C=C(C)C(=O)Nc1ccc(-c2c(-c3ccc4c(C(=O)NC5CC5)n[nH]c4c3)c3c(N)ncnc3n2C)cc1 [Example 1323]
5,1000 to 100000,C=C(C)C(=O)Nc1ccc(-c2c(-c3ccc(-c4cc(=O)[nH][nH]4)cc3)c3c(N)ncnc3n2C)cc1 [Example 1300]
6,1000 to 100000,C#Cc1cc(C)c(-c2cn3ncnc(N)c3c2C2=CC[C@H](C(=O)N3CCC[C@H]3C)CC2)cn1 [Example 1387]
7,≤ 100,C=CC(=O)Nc1ccc(-c2cn3ncnc(N)c3c2-c2ccc(C(=O)N3CCCCC3)cc2)cc1 [Example 837]
8,≤ 100,C=C(C)C(=O)Nc1cnc(-c2c(-c3ccc(Oc4cccc(C)n4)c(F)c3)c3c(N)ncnc3n2C)c(C)c1 [Example 1095]
9,≤ 100,C=C(C)C(=O)Nc1ccc(-c2c(-c3ccc(Oc4nccc(C)n4)c(F)c3)c3c(C)ncnc3n2C)c(C)c1 [Example 1126]
10,250 to 1000,C=C(C)C(=O)Nc1ccc(-c2c(-c3cnc(-c4ccccc4)s3)c3c(N)ncnc3n2C)cc1 [Example 1293]
11,1000 to 100000,C=Cc1nc2cc(-c3c(-c4ccc(C(=O)N5CCCC5)cc4)c4c(N)ncnc4n3C)ccc2n1C [Example 893]
12,100 to 250,C=C(C)C(=O)Nc1ccc(-c2c(-c3ccc(C(=O)c4cccc(C)n4)cc3)c3c(N)ncnn3c2COC)cc1 [Example 853]
13,≤ 100,"C#Cc1cc(C)c(-c2c(-c3ncc(Oc4nccc(C)n4)cc3F)c3c(N)ncnc3n2C)c(C)n1 (atropisomer, axis not shown) [Example 1453]"
14,1000 to 100000,C=CC(=O)N1CCC(c2c(-c3ccc(OC4CC4)nc3)c3c(N)ncnc3n2C)C1 (stereo not shown) [Example 804]
15,≤ 100,"Cn1c(-c2ccc(NC(=O)CCl)cc2)c(C2=CC[C@@H](C(=O)N3CCCC3)CC2)c2c(N)ncnc21 (single isomer, unassigned) [Example 906]"
16,1000 to 100000,C=C(C)C(=O)Nc1ccc(-c2c(-c3ccc(C(=O)NCC4(F)CCC4)c(OC)c3)c3c(N)ncnc3n2C)cc1 [Example 946]
17,1000 to 100000,C#Cc1cc(C)c(-c2c(C3=CC[C@@]4(CC3)Cc3ccc(C)nc3O4)c3c(N)ncnc3n2C)cn1 [Example 1393]
18,100 to 250,"C=C(C)C(=O)N1CC=C(c2c(-c3ccc(Oc4cccc(C)n4)cc3)c3c(N)ncnc3n2C)[C@H]1C (single isomer, unassigned) [Example 930]"

# Same assay, conditions: SNU-16 cells
row,IC50 [nM],Structure (SMILES)
1,1000 to 100000,C=C(C)C(=O)Nc1ccc(-c2c(C3=CC[C@@](C)(C(=O)N4CCCC4)CC3)c3c(N)ncnc3n2C)cc1 [Example 1025]
2,100 to 250,C#Cc1cc(C)c(-c2c(-c3ccc(Oc4nccc(C)n4)c(F)c3)c3c(Cl)ncnc3n2C)c(F)n1 [Example 1416]
